Assay results taken from patent publication US20210337789A1, “Derivatives of m-Guaiacol, Their Preparation and Their Uses” (Universite de Caen Normandie, priority 2018, published 2021).

Columns and labels:
[1] = system: S. aureus strains presenting high levels of resistance; assay: Bacterial growth on S. aureus strains presenting high levels of resistance; format: cell-based, Staphylococcus aureus; design: key to Effects (0 < 1 < 2 < 3): 0 = no effect; 1 = pure only; 2 = several concs; 3 = strong at each; key to Δ DO: change in optical density measured at 600 nm; details: for Effects (0 < 1 < 2 < 3): molecules at 1, 0.5 and 0.1 mg/ml, triclosan at 0.1 mg/ml
Procedure: (§1) The bacterial growth is evaluated by measuring the optical density (DO) at 600 nm using NanoDrop.
(§2) This ratio permits a classification of the molecules in 4 effect levels: • 0=no effect observed; • 1=effect observed only when the molecule is tested pure; • 2=effect observed at several concentrations, but which gradually decreases the dilutions; • 3=strong effect observed at each concentration of molecule tested.
(§3) Compounds of the invention were tested on 4 strains of E. coli, 3 strains of K. pneumoniae and 4 strains of S. aureus with the resistance profiles below.

Escherichia coli = assay: Bacterial growth screening on wild-type phenotype strain, E. coli; format: cell-based
Procedure: as §1, §2
(§4) A screening of molecules of the invention on several wild-type phenotype strains has been carried out.
(§5) The strains initially selected are: • Gram+: Streptococcus equi subsp zooepidemicus and Staphylococcus aureus • Gram−: Escherichia coli, Klebsiella pneumoniae and Stenotrophomonas maltophila.

Staphylococcus aureus = assay: Bacterial growth screening on wild-type phenotype strain, S. aureus; format: cell-based
Procedure: as §1, §2, §4, §5

[2] = system: Micrococcus luteus reference strain; assay: Bacterial growth (optical density at 600 nm) on Micrococcus luteus reference strain; format: cell-based; design: key: 0 = no effect, 1 = pure only, 2 = several concentrations, 3 = strong at all; details: in DMSO diluted in PBS, compared with triclosan
Procedure: as §1, §2
The molecules are put in a solution in DMSO and diluted in PBS.

[3] = system: KB cells (epidermoid carcinoma); assay: In vitro cytotoxicity, cell proliferation test (MTS) on KB cells; format: cell-based; details: Homo sapiens, KB cells, triplicate, 72 hours of exposure, with respect to DMSO control, read-out: percentage of inhibition of cell growth; for inhibition at 10 µM: 10^−5 M; for inhibition at 1 µM: 10^−6 M
Procedure: The human cell strain KB (epidermoid carcinoma) was obtained from the NCI (National Cancer Institute) and cultivated in the D-MEM medium added with 10% of foetal bovine serum (Invitrogen) in the presence of penicillin, streptomycin and fungizone in flasks of […] under CO2 at 5%. The cells were deposited on tissue culture microplates with 96 wells and a density of 650 cells/well in 200 μl of medium and treated 24 hours later with compounds of the invention dissolved in DMSO at concentrations going from 0.5 nM to 10 μM using a Biomek 3000 (Beckman-Coulter) automaton. The controls received the same volume of DMSO (1% of final volume). After 72 hours of exposure, the MTS reagent (Celltiter 96Aqueous One solution, Promega) was added and incubated for 3 hours at 37° C.: the absorbance was measured at 490 nm and the results of inhibition of the cell proliferation were calculated according to the ratio [(1−(OD490treated/OD490control))×100].
Results: Cytotoxicity at 10^−5 and 10^−6M on Triplicate KB Cells, Measured after 72 Hours of Exposure.
The percentage of inhibition of cell growth with respect to the cells receiving the same quantity of DMSO is outlined in the table below.

[4] = system: Streptococcus equi subsp zooepidemicus; assay: Bacterial growth screening on wild-type phenotype strain, S. zooepidemicus; format: cell-based
Procedure: as §1, §2, §4, §5

[5] = system: Stenotrophomonas maltophila; assay: Bacterial growth screening on wild-type phenotype strain, S. maltophila; format: cell-based
Procedure: as §1, §2, §4, §5

[6] = system: E. coli strains presenting high levels of resistance; assay: Bacterial growth on E. coli strains presenting high levels of resistance; format: cell-based, Escherichia coli; design: key to Effects (0 < 1 < 2 < 3): 0 = no effect; 1 = pure only; 2 = several concs; 3 = strong at each; key to Δ DO: change in optical density measured at 600 nm; details: for Effects (0 < 1 < 2 < 3): molecules at 1, 0.5 and 0.1 mg/ml, triclosan at 0.1 mg/ml
Procedure: as §1, §2, §3

[7] = system: K. pneumoniae strains presenting high levels of resistance; assay: Bacterial growth on K. pneumoniae strains presenting high levels of resistance; format: cell-based, Klebsiella pneumoniae; design: key to Effects (0 < 1 < 2 < 3): 0 = no effect; 1 = pure only; 2 = several concs; 3 = strong at each; key to Δ DO: change in optical density measured at 600 nm; details: for Effects (0 < 1 < 2 < 3): molecules at 1, 0.5 and 0.1 mg/ml, triclosan at 0.1 mg/ml
Procedure: as §1, §2, §3

Klebsiella pneumoniae = assay: Bacterial growth screening on wild-type phenotype strain, K. pneumoniae; format: cell-based
Procedure: as §1, §2, §4, §5

[8] = K. pneumoniae Strain 1, 0.1 mg/ml
[9] = K. pneumoniae Strain 1, 0.5 mg/ml
[10] = K. pneumoniae Strain 1, 1 mg/ml
[11] = K. pneumoniae Strain 2, 0.1 mg/ml
[12] = K. pneumoniae Strain 2, 0.5 mg/ml
[13] = K. pneumoniae Strain 2, 1 mg/ml
[14] = K. pneumoniae Strain 3, 0.1 mg/ml
[15] = K. pneumoniae Strain 3, 0.5 mg/ml
[16] = K. pneumoniae Strain 3, 1 mg/ml

For `COc1cc(O)c(Cl)c(Cl)c1Cl` [sr7585], the “Δ DO” value ([1]; S. aureus Strain 1, 0.1 mg/ml) was 0.352, the “Δ DO” value ([1]; S. aureus Strain 1, 0.5 mg/ml) was 0.445 and the “Δ DO” value ([1]; S. aureus Strain 1, 1 mg/ml) was 0.445. For the same compound, the “Effects (0 < 1 < 2 < 3)” value ([1]; S. aureus Strain 1) was 3, the “Δ DO” value ([1]; S. aureus Strain 2, 0.1 mg/ml) was 0.385 and the “Δ DO” value ([1]; S. aureus Strain 2, 0.5 mg/ml) was 0.458. For the same compound, the “Δ DO” value ([1]; S. aureus Strain 2, 1 mg/ml) was 0.457, the “Effects (0 < 1 < 2 < 3)” value ([1]; S. aureus Strain 2) was 3 and the “Δ DO” value ([1]; S. aureus Strain 3, 0.1 mg/ml) was 0.459. For the same compound, the “Δ DO” value ([1]; S. aureus Strain 3, 0.5 mg/ml) was 0.529, the “Δ DO” value ([1]; S. aureus Strain 3, 1 mg/ml) was 0.530 and the “Effects (0 < 1 < 2 < 3)” value ([1]; S. aureus Strain 3) was 3. For the same compound, the “Δ DO” value ([1]; S. aureus Strain 4, 0.1 mg/ml) was 0.405, the “Δ DO” value ([1]; S. aureus Strain 4, 0.5 mg/ml) was 0.491 and the “Δ DO” value ([1]; S. aureus Strain 4, 1 mg/ml) was 0.486. For the same compound, the “Effects (0 < 1 < 2 < 3)” value ([1]; S. aureus Strain 4) was 3, the “Effect level, E. coli” value (Escherichia coli) was 3 and the “Effect level, S. aureus” value (Staphylococcus aureus) was 3. It also gave an Effect level [2] of 3, an inhibition at 10 µM [3] of 0% and an inhibition at 1 µM [3] of 0%. The “Effect level, S. zooepidemicus” value [4] was 3, the “Effect level, S. maltophila” value [5] was 2 and the “Δ DO” value ([6]; E. coli Strain 1, 0.1 mg/ml) was 0.196. The “Δ DO” value ([6]; E. coli Strain 1, 0.5 mg/ml) was 0.746, the “Δ DO” value ([6]; E. coli Strain 1, 1 mg/ml) was 0.920 and the “Effects (0 < 1 < 2 < 3)” value ([6]; E. coli Strain 1) was 3. For the same compound, the “Δ DO” value ([6]; E. coli Strain 2, 0.1 mg/ml) was 0.313, the “Δ DO” value ([6]; E. coli Strain 2, 0.5 mg/ml) was 0.964 and the “Δ DO” value ([6]; E. coli Strain 2, 1 mg/ml) was 1.097. For the same compound, the “Effects (0 < 1 < 2 < 3)” value ([6]; E. coli Strain 2) was 3, the “Δ DO” value ([6]; E. coli Strain 3, 0.1 mg/ml) was 0.186 and the “Δ DO” value ([6]; E. coli Strain 3, 0.5 mg/ml) was 0.736. For the same compound, the “Δ DO” value ([6]; E. coli Strain 3, 1 mg/ml) was 0.893, the “Effects (0 < 1 < 2 < 3)” value ([6]; E. coli Strain 3) was 3 and the “Δ DO” value ([6]; E. coli Strain 4, 0.1 mg/ml) was 0.322. For the same compound, the “Δ DO” value ([6]; E. coli Strain 4, 0.5 mg/ml) was 0.848, the “Δ DO” value ([6]; E. coli Strain 4, 1 mg/ml) was 0.979 and the “Effects (0 < 1 < 2 < 3)” value ([6]; E. coli Strain 4) was 3. For the same compound, the “Δ DO” value [7, 8] was 0.251, the “Δ DO” value [7, 9] was 0.595 and the “Δ DO” value [7, 10] was 0.644. The “Effects (0 < 1 < 2 < 3)” value ([7]; K. pneumoniae Strain 1) was 3, the “Δ DO” value [7, 11] was 0.035 and the “Δ DO” value [7, 12] was 0.620. For the same compound, the “Δ DO” value [7, 13] was 0.701, the “Effects (0 < 1 < 2 < 3)” value ([7]; K. pneumoniae Strain 2) was 2 and the “Δ DO” value [7, 14] was 0.265. For the same compound, the “Δ DO” value [7, 15] was 0.683, the “Δ DO” value [7, 16] was 0.872 and the “Effects (0 < 1 < 2 < 3)” value ([7]; K. pneumoniae Strain 3) was 2. For the same compound, the “Effect level, K. pneumoniae” value (Klebsiella pneumoniae) was 2.

In the case of `COc1cc(O)c(Cl)c(Br)c1Cl` [sr7616], the “Δ DO” value ([1]; S. aureus Strain 1, 0.1 mg/ml) is reported as 0.276, the “Δ DO” value ([1]; S. aureus Strain 1, 0.5 mg/ml) is reported as 0.443 and the “Δ DO” value ([1]; S. aureus Strain 1, 1 mg/ml) is reported as 0.445. For the same compound, the “Effects (0 < 1 < 2 < 3)” value ([1]; S. aureus Strain 1) was 3, the “Δ DO” value ([1]; S. aureus Strain 2, 0.1 mg/ml) was 0.303 and the “Δ DO” value ([1]; S. aureus Strain 2, 0.5 mg/ml) was 0.458. For the same compound, the “Δ DO” value ([1]; S. aureus Strain 2, 1 mg/ml) was 0.459, the “Effects (0 < 1 < 2 < 3)” value ([1]; S. aureus Strain 2) was 3 and the “Δ DO” value ([1]; S. aureus Strain 3, 0.1 mg/ml) was 0.299. The “Δ DO” value ([1]; S. aureus Strain 3, 0.5 mg/ml) was 0.529, the “Δ DO” value ([1]; S. aureus Strain 3, 1 mg/ml) was 0.525 and the “Effects (0 < 1 < 2 < 3)” value ([1]; S. aureus Strain 3) was 3. For the same compound, the “Δ DO” value ([1]; S. aureus Strain 4, 0.1 mg/ml) was 0.291, the “Δ DO” value ([1]; S. aureus Strain 4, 0.5 mg/ml) was 0.491 and the “Δ DO” value ([1]; S. aureus Strain 4, 1 mg/ml) was 0.491. For the same compound, the “Effects (0 < 1 < 2 < 3)” value ([1]; S. aureus Strain 4) was 3, the “Effect level, E. coli” value (Escherichia coli) was 3 and the “Effect level, S. aureus” value (Staphylococcus aureus) was 2. It also gave an Effect level [2] of 3, an inhibition at 10 µM [3] of 0% and an inhibition at 1 µM [3] of 0%. The “Effect level, S. zooepidemicus” value [4] was 3, the “Effect level, S. maltophila” value [5] was 2 and the “Δ DO” value ([6]; E. coli Strain 1, 0.1 mg/ml) was 0.089. For the same compound, the “Δ DO” value ([6]; E. coli Strain 1, 0.5 mg/ml) was 0.640, the “Δ DO” value ([6]; E. coli Strain 1, 1 mg/ml) was 0.857 and the “Effects (0 < 1 < 2 < 3)” value ([6]; E. coli Strain 1) was 2. The “Δ DO” value ([6]; E. coli Strain 2, 0.1 mg/ml) was 0.331, the “Δ DO” value ([6]; E. coli Strain 2, 0.5 mg/ml) was 0.854 and the “Δ DO” value ([6]; E. coli Strain 2, 1 mg/ml) was 1.069. The “Effects (0 < 1 < 2 < 3)” value ([6]; E. coli Strain 2) was 3, the “Δ DO” value ([6]; E. coli Strain 3, 0.1 mg/ml) was 0.141 and the “Δ DO” value ([6]; E. coli Strain 3, 0.5 mg/ml) was 0.679. The “Δ DO” value ([6]; E. coli Strain 3, 1 mg/ml) was 0.825, the “Effects (0 < 1 < 2 < 3)” value ([6]; E. coli Strain 3) was 3 and the “Δ DO” value ([6]; E. coli Strain 4, 0.1 mg/ml) was 0.308. The “Δ DO” value ([6]; E. coli Strain 4, 0.5 mg/ml) was 0.868, the “Δ DO” value ([6]; E. coli Strain 4, 1 mg/ml) was 0.853 and the “Effects (0 < 1 < 2 < 3)” value ([6]; E. coli Strain 4) was 3. The “Δ DO” value [7, 8] was 0.236, the “Δ DO” value [7, 9] was 0.594 and the “Δ DO” value [7, 10] was 0.646. For the same compound, the “Effects (0 < 1 < 2 < 3)” value ([7]; K. pneumoniae Strain 1) was 3, the “Δ DO” value [7, 11] was 0.151 and the “Δ DO” value [7, 12] was 0.641. For the same compound, the “Δ DO” value [7, 13] was 0.686, the “Effects (0 < 1 < 2 < 3)” value ([7]; K. pneumoniae Strain 2) was 2 and the “Δ DO” value [7, 14] was 0.213. The “Δ DO” value [7, 15] was 0.652, the “Δ DO” value [7, 16] was 0.847 and the “Effects (0 < 1 < 2 < 3)” value ([7]; K. pneumoniae Strain 3) was 2. The “Effect level, K. pneumoniae” value (Klebsiella pneumoniae) was 3.
